Data as given in ChEMBL document CHEMBL3875218, “Bifunctional conjugates with potent inhibitory activity towards cyclooxygenase and histone deacetylase” (Bioorg Med Chem, 2017).

Experiments:
[1] = system: LNCaP; assay: Inhibition of class 1 HDAC in human LNCAP cells assessed as acetylated histone H4 accumulation after 24 hrs by Western blot analysis; type: cell-based
[2] = target: T1, Protein deacetylase HDAC6 (Homo sapiens) (UniProt Q9UBN7); assay: Inhibition of HDAC6 in human LNCAP cells assessed as acetylated tubulin accumulation in cytosol after 24 hrs by Western blot analysis; type: cell-based
T1 sequence (whole entry): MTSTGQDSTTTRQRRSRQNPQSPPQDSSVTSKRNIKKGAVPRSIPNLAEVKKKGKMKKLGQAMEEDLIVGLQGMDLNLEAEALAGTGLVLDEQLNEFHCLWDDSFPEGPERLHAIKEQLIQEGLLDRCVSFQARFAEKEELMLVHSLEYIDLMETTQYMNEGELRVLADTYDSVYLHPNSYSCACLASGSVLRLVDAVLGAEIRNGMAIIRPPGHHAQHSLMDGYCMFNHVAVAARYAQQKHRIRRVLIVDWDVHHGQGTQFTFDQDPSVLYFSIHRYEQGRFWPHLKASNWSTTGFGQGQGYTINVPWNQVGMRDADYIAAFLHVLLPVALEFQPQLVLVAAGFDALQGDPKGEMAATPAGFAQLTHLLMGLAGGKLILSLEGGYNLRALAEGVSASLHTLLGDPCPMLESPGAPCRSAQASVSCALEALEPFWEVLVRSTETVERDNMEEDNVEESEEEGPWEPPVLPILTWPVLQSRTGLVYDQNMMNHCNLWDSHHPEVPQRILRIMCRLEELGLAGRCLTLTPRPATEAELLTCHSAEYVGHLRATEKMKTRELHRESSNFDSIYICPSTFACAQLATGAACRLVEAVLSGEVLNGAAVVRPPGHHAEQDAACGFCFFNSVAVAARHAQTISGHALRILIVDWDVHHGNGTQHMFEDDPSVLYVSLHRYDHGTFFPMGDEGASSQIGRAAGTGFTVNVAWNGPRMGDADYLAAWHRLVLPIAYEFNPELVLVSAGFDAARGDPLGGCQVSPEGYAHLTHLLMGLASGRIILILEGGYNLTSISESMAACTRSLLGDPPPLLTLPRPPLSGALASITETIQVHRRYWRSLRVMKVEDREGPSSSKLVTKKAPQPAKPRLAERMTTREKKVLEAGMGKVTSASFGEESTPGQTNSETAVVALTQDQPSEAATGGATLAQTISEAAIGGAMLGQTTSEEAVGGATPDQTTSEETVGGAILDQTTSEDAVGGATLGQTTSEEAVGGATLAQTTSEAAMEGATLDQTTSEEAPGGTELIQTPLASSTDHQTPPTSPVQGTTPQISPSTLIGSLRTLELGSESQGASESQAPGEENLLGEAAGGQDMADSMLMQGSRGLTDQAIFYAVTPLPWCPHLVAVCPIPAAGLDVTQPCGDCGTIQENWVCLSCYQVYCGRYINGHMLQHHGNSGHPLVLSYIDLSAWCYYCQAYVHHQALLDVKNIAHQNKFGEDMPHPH

[3] = system: LNCaP; assay: Induction of cell cycle arrest in human LNCAP cells assessed as accumulation at G1 phase at 2.5 uM after 24 hrs by propidium iodide staining based FACS analysis (reference value: 69.5%); type: functional
[4] = Cytotoxicity against human HeLa cells assessed as cell growth inhibition after 72 hrs by MTT assay
[5] = target: Histone deacetylase 3 (Homo sapiens, UniProt O15379); assay: Inhibition of HDAC3 (unknown origin) after 5 hrs by SAMDI mass spectroscopic analysis
Sequence of Histone deacetylase 3 (O15379 whole entry): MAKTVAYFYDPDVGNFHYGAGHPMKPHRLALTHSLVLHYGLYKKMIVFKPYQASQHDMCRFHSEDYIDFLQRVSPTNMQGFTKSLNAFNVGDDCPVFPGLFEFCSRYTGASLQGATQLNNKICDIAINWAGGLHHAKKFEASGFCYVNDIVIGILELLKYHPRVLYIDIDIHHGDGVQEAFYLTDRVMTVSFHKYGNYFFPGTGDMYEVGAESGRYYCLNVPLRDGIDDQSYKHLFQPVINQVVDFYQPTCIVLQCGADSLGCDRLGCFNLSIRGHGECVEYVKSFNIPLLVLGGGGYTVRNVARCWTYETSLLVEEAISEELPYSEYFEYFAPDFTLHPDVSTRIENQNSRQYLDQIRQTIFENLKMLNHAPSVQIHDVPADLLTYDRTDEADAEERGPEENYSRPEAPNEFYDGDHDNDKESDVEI

[6] = target: T2, Prostaglandin G/H synthase 2 (Homo sapiens) (UniProt P35354); assay: Inhibition of recombinant human COX2 at 10 uM using arachidonic acid as substrate preincubated for 15 mins followed by substrate addition for 2 mins by Cayman based fluorescence assay
T2 sequence (whole entry): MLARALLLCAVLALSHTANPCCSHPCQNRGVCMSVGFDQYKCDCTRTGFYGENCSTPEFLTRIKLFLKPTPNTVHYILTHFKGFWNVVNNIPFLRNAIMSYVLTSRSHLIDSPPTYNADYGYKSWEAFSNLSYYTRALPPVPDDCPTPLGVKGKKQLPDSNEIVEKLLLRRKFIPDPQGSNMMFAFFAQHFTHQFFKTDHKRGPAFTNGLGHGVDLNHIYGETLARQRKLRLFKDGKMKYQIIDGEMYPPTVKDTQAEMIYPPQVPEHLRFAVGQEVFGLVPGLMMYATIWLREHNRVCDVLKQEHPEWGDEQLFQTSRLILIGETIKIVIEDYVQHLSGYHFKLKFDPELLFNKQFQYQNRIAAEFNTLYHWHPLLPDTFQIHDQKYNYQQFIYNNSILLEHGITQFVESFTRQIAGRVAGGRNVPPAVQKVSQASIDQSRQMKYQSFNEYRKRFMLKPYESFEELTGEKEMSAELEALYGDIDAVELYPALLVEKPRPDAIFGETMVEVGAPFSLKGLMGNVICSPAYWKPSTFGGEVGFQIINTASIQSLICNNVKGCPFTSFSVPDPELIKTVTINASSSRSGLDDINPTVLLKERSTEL

[7] = system: LNCaP; assay: Induction of cell cycle arrest in human LNCAP cells assessed as accumulation at lesser G1 phase at 2.5 uM after 24 hrs by propidium iodide staining based FACS analysis (reference value: 1.59%); type: functional
[8] = system: LNCaP; assay: Induction of cell cycle arrest in human LNCAP cells assessed as accumulation at greater G2 phase at 2.5 uM after 24 hrs by propidium iodide staining based FACS analysis (reference value: 0.20%); type: functional
[9] = target: Histone deacetylase 2 (Homo sapiens, UniProt Q92769); assay: Inhibition of HDAC2 (unknown origin) after 24 hrs by SAMDI mass spectroscopic analysis
Sequence of Histone deacetylase 2 (Q92769 whole entry): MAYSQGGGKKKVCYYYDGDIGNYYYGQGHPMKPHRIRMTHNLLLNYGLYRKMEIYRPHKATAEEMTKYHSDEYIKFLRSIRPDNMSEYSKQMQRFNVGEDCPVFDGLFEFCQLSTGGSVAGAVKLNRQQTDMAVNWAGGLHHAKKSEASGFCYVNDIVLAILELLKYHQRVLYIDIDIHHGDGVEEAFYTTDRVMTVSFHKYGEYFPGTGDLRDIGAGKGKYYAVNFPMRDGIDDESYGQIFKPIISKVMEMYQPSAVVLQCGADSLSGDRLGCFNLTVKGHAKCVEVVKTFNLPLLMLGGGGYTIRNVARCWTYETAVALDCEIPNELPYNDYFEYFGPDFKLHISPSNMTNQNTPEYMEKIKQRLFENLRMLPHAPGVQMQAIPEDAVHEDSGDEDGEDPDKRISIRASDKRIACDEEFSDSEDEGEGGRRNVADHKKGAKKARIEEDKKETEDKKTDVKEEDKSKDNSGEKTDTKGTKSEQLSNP

[10] = target: T3, Protein deacetylase HDAC6 (Homo sapiens, UniProt Q9UBN7); assay: Inhibition of HDAC6 (unknown origin) after 20 hrs by SAMDI mass spectroscopic analysis
T3 sequence (Q9UBN7 whole entry): T1 sequence (whole entry)

Cc1ccc(-c2cc(C(F)(F)F)nn2-c2ccc(S(=O)(=O)NCCCCCCC(=O)NO)cc2)cc1
inhibition [1]: Dose-dependent effect
inhibition [2]: Dose-dependent effect
Activity [3]: 57.4%
IC50 [4]: 6500 nM
IC50 [5]: 424 nM
inhibition [6]: 100%
Activity [7]: -0.32%
Activity [8]: 1.67%
IC50 [9]: 4050 nM
IC50 [10]: 66 nM

COc1ccc2c(c1)c(CC(=O)NCCCCCCC(=O)NO)c(C)n2C(=O)c1ccc(Cl)cc1
inhibition [1]: Dose-dependent effect
inhibition [2]: Dose-dependent effect
Activity [3]: 62.5%
IC50 [4]: 8870 nM
IC50 [5]: 356 nM
inhibition [6]: 98.1%
Activity [7]: 1.95%
Activity [8]: 0.35%
IC50 [9]: 854 nM
IC50 [10]: 49 nM
